Assay results as given in paper PMC9228592, “Dichloroacetyl Amides of 3,5-Bis(benzylidene)-4-piperidones Displaying Greater Toxicity to Neoplasms than to Non-Malignant Cells” (Medicines, 2022).

Key:
Format in all cases: cell-based, human
[1] = tested on: Ca9-22 squamous cell carcinoma cells; experiment: Cytotoxicity (MTT, 48 h) against Ca9-22 cells; settings: for CC50: 48 h, MTT, mean ± S.D. of triplicate; for SI (Ca9-22): average CC50 towards HGF, HPLF, HPC divided by CC50 against Ca9-22
Excerpt: (§1) The target cells used in our study were human oral squamous cell carcinoma cell lines Ca9-22 (purchased from RIKEN Cell Bank, Tukuba, RCB-1976), HSC-2 (RCB1945), HSC-3 (RCB1975), HSC-4 (RCB1902), and three human normal oral cells, gingival fibroblast (HGF), periodontal ligament fibroblast (HPLF), and pulp cells (HPC) [established from the first premolar extracted tooth in the lower jaw (because of dysfunctional position or orthodontic treatment) and periodontal tissues of a child, according to the guideline of the Institutional Board of Meikai University Ethics Committee (No. A0808)], after obtaining informed consent from the patients. These cells were incubated for 48 h with the indicated concentrations of test samples or reference compounds sodium dichloroacetate (purchased from Sigma-Aldrich Chemical Company, Saint Louis, MO, USA), 5-fluorouracil (5-FU) from Kyowa (Tokyo, Japan), and doxorubicin (DXR) (St. Louis, MO, USA) and vehicle (DMSO) (0.008, 0.016, 0.031, 0.063, 0.125, 0.25, 0.5, and 1%) in Dulbecco’s Modified Eagle Medium (DMEM) media, which was supplemented with 10% heat-inactivated fetal bovine serum. Cell viability was determined by the MTT method. Cytotoxicity caused by the vehicle (DMSO) was subtracted.
(§2) SI was calculated by dividing the average CC50 value (concentration of the compound to kill 50% of the cells) of the compound towards HGF, HPLF, and HPC cells by the CC50 value of the compound against a specific neoplastic cell line.

[2] = tested on: gingival fibroblast (HGF); experiment: Cytotoxicity (MTT, 48 h) against HGF non-malignant cells; settings: mean ± S.D. of triplicate
Excerpt: as §1

[3] = tested on: HSC-3 squamous cell carcinoma cells; experiment: Cytotoxicity (MTT, 48 h) against HSC-3 cells; settings: for CC50: 48 h, MTT, mean ± S.D. of triplicate; for SI (HSC-3): average CC50 towards HGF, HPLF, HPC divided by CC50 against HSC-3
Excerpt: as §1, §2

[4] = tested on: HSC-4 squamous cell carcinoma cells; experiment: Cytotoxicity (MTT, 48 h) against HSC-4 cells; settings: for CC50: 48 h, MTT, mean ± S.D. of triplicate; for SI (HSC-4): average CC50 towards HGF, HPLF, HPC divided by CC50 against HSC-4
Excerpt: as §1, §2

[5] = tested on: HSC-2 squamous cell carcinoma cells; experiment: Cytotoxicity (MTT, 48 h) against HSC-2 cells; settings: for SI (HSC-2): average CC50 towards HGF, HPLF, HPC divided by CC50 against HSC-2
Excerpt: as §1, §2

pulp cells (HPC) = experiment: Cytotoxicity (MTT, 48 h) against HPC non-malignant cells; settings: mean ± S.D. of triplicate
Excerpt: as §1

HGF, HPLF, and HPC cells = experiment: Average cytotoxicity over the three non-malignant cells
Excerpt: as §1

[6] = tested on: periodontal ligament fibroblast (HPLF); experiment: Cytotoxicity (MTT, 48 h) against HPLF non-malignant cells; settings: mean ± S.D. of triplicate
Excerpt: as §1

[7] = tested on: Ca9-22, HSC-2, HSC-3, and HSC-4 cells; experiment: Average cytotoxicity, selectivity and PSE over the four carcinoma lines; settings: for Average SI: average of SI over Ca9-22, HSC-2, HSC-3, HSC-4
Excerpt: as §1, §2
PSE reflects both the potencies and differences in cytotoxicity to neoplasms and non-malignant cells. This value was the product of the reciprocal of the average CC50 value of the compounds towards Ca9-22, HSC-2, HSC-3, and HSC-4 cells and the average SI value × 100.

[8] = Cytotoxicity (MTT, 48 h) against HGF non-malignant cells; settings: human, normal gingival fibroblasts (HGF), mean ± S.D. of triplicate
Excerpt: as §1

[9] = Cytotoxicity (MTT, 48 h) against HPC non-malignant cells; settings: female, human, normal pulp cells (HPC), mean ± S.D. of triplicate
Excerpt: as §1

[10] = Average cytotoxicity over the three non-malignant cells; settings: female, human, normal oral cells HGF, HPLF and HPC (average over the three)
Excerpt: as §1

[11] = Cytotoxicity (MTT, 48 h) against HPLF non-malignant cells; settings: human, normal periodontal ligament fibroblasts (HPLF), mean ± S.D. of triplicate
Excerpt: as §1

Ca9-22 cells = experiment: Cell cycle assay in Ca9-22 cells; settings: 20 h
Description: The evaluation of varying quantities of 1d,e,k on the cell cycle in Ca9-22 cells was undertaken by a literature method. In brief, Ca9-22 cells were treated for 20 h without (control) or with the indicated concentrations of the test samples. To neglect the cytotoxicity effect of DMSO, all samples contained 0.1% DMSO. Cells (approximately 10^6 cells) were harvested, fixed for 1 h on ice with 1% paraformaldehyde, washed twice by phosphate-buffered saline, treated for 30 min at 37 °C with 0.2 mg/mL RNase A (ribonuclease A), stained for 15 min at room temperature with 0.01% propidium iodide in the presence of 0.01% NP-40 (nonyl phenoxypolyethoxyethanol) to prevent cell aggregation, filtered through Falcon® cell strainers (pore size: 40 µm) (Corning, NY, USA), subjected to cell sorting (SH800 Series; SONY Imaging Products and Solutions Inc., Kanagawa, Japan), and then analyzed with Cell Sorter Software version 2.1.2. (SONY Imaging Products and Solutions Inc., Kanagawa, Japan).

[12] = 48 h, MTT, mean ± S.D. of triplicate
[13] = average over Ca9-22, HSC-2, HSC-3, HSC-4
[14] = Homo sapiens, HSC-2, 48 h, MTT, mean ± S.D. of triplicate
[15] = Homo sapiens, average over Ca9-22, HSC-2, HSC-3, HSC-4

Structure (SMILES)	CC50 [1] [nM]	SI (Ca9-22) [1]	CC50 [2] [nM]	CC50 [3] [nM]	SI (HSC-3) [3]	CC50 [4] [nM]	SI (HSC-4) [4]	CC50 [5, 12] [nM]	SI (HSC-2) [5]	CC50 (pulp cells (HPC)) [nM]	CC50 (HGF, HPLF, and HPC cells) [nM]	CC50 [6] [nM]	Average SI [7]	CC50 [7, 13] [nM]	other results
Cc1ccc(C=C2CN(C(=O)C(Cl)Cl)CC(=Cc3ccc(C)cc3)C2=O)cc1 [Compound 1j]	150 ± 30	32.1	5530 ± 310	460 ± 40	10.5	450 ± 40	10.7	260 ± 10	18.5	3930 ± 650	4820	5000 ± 100	18.0	330	–
COc1cc(/C=C2\CN(C(=O)C(Cl)Cl)C/C(=C\c3cc(OC)c(OC)c(OC)c3)C2=O)cc(OC)c1OC [Compound 1h]	720 ± 150	11.9	4700 ± 1600	1370 ± 220	6.26	990 ± 390	8.67	140 ± 10	–	4000 ± 600	8580	17000 ± 5100	22.0	800	–
COc1cccc2c1C(=O)c1c(O)c3c(c(O)c1C2=O)C[C@@](O)(C(=O)CO)C[C@@H]3O[C@H]1C[C@H](N)[C@H](O)[C@H](C)O1 [DXR, doxorubicin, reference compound]	–	>22.2	–	–	>36.7	–	>79.6	–	>47.8	–	–	–	>46.6	–	CC50 ([1]; Homo sapiens, Ca9-22): 430 ± 40 nM; CC50 at 48 h [8]: > 10000 nM; CC50 ([3]; Homo sapiens, HSC-3): 260 ± 210 nM; CC50 ([4]; Homo sapiens, HSC-4): 120 nM; CC50 [5, 14]: 200 ± 20 nM; CC50 at 48 h [9]: > 8650 nM; CC50 at 48 h [10]: > 9550 nM; CC50 at 48 h [11]: > 10000 nM; CC50 [7, 15]: 250 nM
O=C1/C(=C/c2ccc3c(c2)OCO3)CN(C(=O)C(Cl)Cl)C/C1=C\c1ccc2c(c1)OCO2 [Compound 1i]	170 ± 60	25.1	5670 ± 310	740 ± 130	5.77	650 ± 170	6.57	360 ± 10	11.9	2780 ± 140	4270	4370 ± 850	12.3	480	–
COc1ccc(/C=C2\CN(C(=O)C(Cl)Cl)C/C(=C\c3ccc(OC)c(OC)c3)C2=O)cc1OC [Compound 1g]	–	36.8	–	–	14.5	–	20.3	–	23.8	–	–	–	23.9	–	CC50 ([1]; Homo sapiens, Ca9-22): 110 ± 20 nM; CC50 at 48 h [8]: 8130 ± 2470 nM; CC50 ([3]; Homo sapiens, HSC-3): 280 ± 30 nM; CC50 ([4]; Homo sapiens, HSC-4): 200 ± 40 nM; CC50 [5, 14]: 170 ± 20 nM; CC50 at 48 h [9]: 1190 ± 90 nM; CC50 at 48 h [10]: 4050 nM; CC50 at 48 h [11]: 2830 ± 1530 nM; CC50 [7, 15]: 190 nM
O=C([O-])C(Cl)Cl.[Na+] [SDA, sodium dichloroacetate, reference compound]	> 200000	–	> 200000	> 200000	–	> 200000	–	> 200000	–	> 200000	> 200000	> 200000	–	> 200000	Average CC50 [7, 13]: little or no efficacy
O=C1C(=Cc2ccc(Cl)c(Cl)c2)CN(C(=O)C(Cl)Cl)CC1=Cc1ccc(Cl)c(Cl)c1 [Compound 1e]	40	19.5	1040 ± 130	130 ± 60	6.00	230 ± 10	3.39	80 ± 10	9.75	490	780	820 ± 100	9.66	120	subG1 population (Ca9-22 cells; 0.8 µM): slight increase; G2M cell population (Ca9-22 cells; 0.8 µM, p < 0.05): most prominent increase; effect on the cell cycle (Ca9-22 cells; 0.1, 0.2, and 0.4 µM): little effects; HSC-2 CC50 [5, 12]: double-digit nanomolar
COc1ccc(/C=C2\CN(C(=O)C(Cl)Cl)C/C(=C\c3ccc(OC)cc3)C2=O)cc1 [Compound 1f]	390 ± 20	15.4	9030 ± 760	1000 ± 160	5.99	1260 ± 270	4.75	520 ± 70	11.5	3620 ± 70	5990	5330 ± 320	9.41	790	–
CN(C)c1ccc(C=C2CN(C(=O)C(Cl)Cl)CC(=Cc3ccc(N(C)C)cc3)C2=O)cc1 [Compound 1l]	13600 ± 2700	10.3	111000 ± 27000	45500 ± 7600	3.08	19600 ± 6300	7.14	14900 ± 4400	9.40	122000 ± 69000	140000	188000 ± 21000	7.48	23400	CC50 Average (non-malignant cells) (HGF, HPLF, and HPC cells): very low toxicity
O=C1C(=Cc2ccc(F)c(F)c2)CN(C(=O)C(Cl)Cl)CC1=Cc1ccc(F)c(F)c1 [Compound 1c]	90 ± 20	20.0	2210 ± 110	350 ± 20	5.14	200 ± 10	9.00	200 ± 20	9.00	1280 ± 370	1800	1910 ± 80	10.8	210	–
CC(=O)N1C/C(=C\c2ccccc2)C(=O)/C(=C/c2ccccc2)C1 [Compound 2b]	–	17.3	–	–	4.93	–	7.07	–	9.02	–	–	–	9.58	–	CC50 ([1]; Homo sapiens, Ca9-22): 640 ± 10 nM; CC50 at 48 h [8]: 23000 ± 1700 nM; CC50 ([3]; Homo sapiens, HSC-3): 2250 ± 80 nM; CC50 ([4]; Homo sapiens, HSC-4): 1570 ± 120 nM; CC50 [5, 14]: 1230 ± 70 nM; CC50 at 48 h [9]: 4830 ± 120 nM; CC50 at 48 h [10]: 11100 nM; CC50 at 48 h [11]: 5600 ± 1130 nM; CC50 [7, 15]: 1420 nM
O=C1C(=Cc2ccccc2)CN(C(=O)C(Cl)Cl)CC1=Cc1ccccc1 [Compound 1a]	420 ± 40	9.64	5900 ± 100	1290 ± 70	3.14	590 ± 120	6.86	670 ± 60	6.05	2880 ± 80	4050	3370 ± 420	6.42	740	–
O=C1C(=Cc2ccc(F)cc2)CN(C(=O)C(Cl)Cl)CC1=Cc1ccc(F)cc1 [Compound 1b]	110 ± 10	19.8	2970 ± 460	440 ± 20	4.96	330 ± 70	6.61	250 ± 20	8.72	1300 ± 160	2180	2260 ± 110	10.0	280	–
